Experimental findings from patent US20030187240A1, “2' -modified oligonucleotides” (ISIS Pharmaceuticals, Inc., priority 1990, published 2003) are described below.

Values joined by “and” are separate entries in the source; they are usually repeats but may differ in a detail not shown here. Equal entries are not always repeated. “Also recorded” adds a separate entry of the source. Strand notation (5' to 3'): a small letter for the sugar, then the base; units joined by * are phosphorothioate-linked, units joined directly phosphodiester-linked; [ ] holds rarer units or linkages, { } end groups; capitals alone tell only the bases. d = 2'-deoxy (DNA); m = 2'-O-methyl Where only a bound is given, the exact number is not on record here.

Series [1] concerns c-raf mRNA. Nature of the series: Northern blot analysis of inhibition of c-raf mRNA expression in T24 cells. Type of series: cell-based, human. The source says:
Chimeric oligonucleotides having SEQ ID NO: 7 were designed using the Genbank c-raf sequence HUMRAFR (Genbank listing x03484), synthesized and tested for inhibition of c-raf mRNA expression in T24 bladder carcinoma cells using a Northern blot assay. These chimeric oligonucleotides have central “gap” regions of 6, 8 or 10 deoxynucleotides flanked by two regions of 2′-O-methyl modified nucleotides, and are shown in Table 10. Backbones were uniformly phosphorothioate. […] These oligonucleotides are preferred.
The human urinary bladder cancer cell line T24 was obtained from the American Type Culture Collection (Rockville, Md.). Cells were grown in McCoy's 5A medium with L-glutamine (GIBCO-BRL, Gaithersburg, Md.), supplemented with 10% heat-inactivated fetal calf serum and 50 U/ml each of penicillin and streptomycin. Cells were seeded on 100 mm plates. When they reached 70% confluency, they were treated with oligonucleotide. Plates were washed with 10 ml prewarmed PBS and 5 ml of OptiMEM reduced-serum medium containing 2.5 μl DOTMA. Oligonucleotide with lipofectin was then added to the desired concentration. After 4 hours of treatment, the medium was replaced with McCoy's medium. Cells were harvested 24 to 72 hours after oligonucleotide treatment and RNA was isolated using a standard CsCl purification method. [Kingston in Current Protocols in Molecular Biology, F. M. Ausubel, R. Brent, R. E. Kingston, D. D. Moore, J. A. Smith, J. G. Seidman and K. Strahl, Eds., John Wiley and Sons, New York.] Total RNA was isolated by centrifugation of cell lysates over a CsCl cushion. RNA samples were electrophoresed through 1.2% agarose-formaldehyde gels and transferred to hybridization membranes by capillary diffusion over a 12-14 hour period. The RNA was cross-linked to the membrane by exposure to UV light in a Stratalinker (Stratagene, La Jolla, Calif.) and hybridized to random-primed ^32P-labeled c-raf cDNA probe (obtained from ATCC) or G3PDH probe as a control. RNA was quantitated using a Phosphorimager (Molecular Dynamics, Sunnyvale, Calif.).

Series [2] concerns ras mRNA. Nature of the series: Northern blot analysis of ras expression in T24 cells. Also on record: inhibition of ras expression / decrease of ras mRNA: concentration or dose not given beside the values. Type of series: cell-based, human. The following applies: for inhibition of ras expression in T24 cells: result in words. The method, then: (§1) The human urinary bladder cancer cell line T24 was obtained from the American Type Culture Collection (Rockville Md.). Cells were grown in McCoy's 5A medium with L-glutamine (GIBCO-BRL, Gaithersburg, Md.), supplemented with 10% heat-inactivated fetal calf serum and 50 U/ml each of penicillin and streptomycin. Cells were seeded on 100 mm plates. When they reached 70% confluency, they were treated with oligonucleotide. Plates were washed with 10 ml prewarmed PBS and 5 ml of OptiMEM (GIBCO) reduced-serum medium containing 2.5 μl DOTMA. Oligonucleotide was then added to the desired concentration. After 4 hours of treatment, the medium was replaced with McCoy's medium. Cells were harvested 48 hours after oligonucleotide treatment and RNA was isolated using a standard CsCl purification method. [Kingston in Current Protocols in Molecular Biology, F. M. Ausubel, R. Brent, R. E. Kingston, D. D. Moore, J. A. Smith, J. G. Seidman and K. Strahl, Eds., John Wiley and Sons, New York.] The human epithelioid carcinoma cell line HeLa 229 was obtained from the American Type Culture Collection (Bethesda, Md.). HeLa cells were maintained as monolayers on 6-well plates in Dulbecco's Modified Eagle's medium (DMEM) supplemented with 10 fetal bovine serum and 100 U/ml penicillin. Treatment with oligonucleotide and isolation of RNA were essentially as described above for T24 cells.
Northern hybridization: 10 μg of each RNA was electrophoresed on a 1.2% agarose/formaldehyde gel and transferred overnight to GeneBind 45 nylon membrane (Pharmacia LKB, Piscataway, N.J.) using standard methods. [Kingston in Current Protocols in Molecular Biology, F. M. Ausubel, R. Brent, R. E. Kingston, D. D. Moore, J. A. Smith, J. G. Seidman and K. Strahl, Eds., John Wiley and Sons, New York.] RNA was UV-crosslinked to the membrane. Double-stranded ^32P-labeled probes were synthesized using the Prime a Gene labeling kit (Promega, Madison Wis.). The ras probe was a SalI-NheI fragment of a cDNA clone of the activated (mutant) H-ras mRNA having a GGC-to-GTC mutation at codon-12. The control probe was G3PDH. Blots were prehybridized for 15 minutes at 68° C. with the QuickHyb hybridization solution (Stratagene, La Jolla, Calif.). The heat-denatured radioactive probe (2.5×10^6 counts/2 ml hybridization solution) mixed with 100 μl of 10 mg/ml salmon sperm DNA was added and the membrane was hybridized for 1 hour at 68° C. The blots were washed twice for 15 minutes at room temperature in 2×SSC/0.1% SDS and once for 30 minutes at 60° C. with 0.1×SSC/0.1%SDS. Blots were autoradiographed and the intensity of signal was quantitated using an ImageQuant PhosphorImager (Molecular Dynamics, Sunnyvale, Calif.). Northern blots were first hybridized with the ras probe, then stripped by boiling for 15 minutes in 0.1×SSC/0.1%SDS and rehybridized with the control G3PDH probe to check for correct sample loading.

Series [3] relates to ras expression in HeLa cells (wild-type H-ras codon-12). As to the kind of experiment: Northern blot analysis of ras expression in HeLa cells. Type of series: cell-based, human. The protocol:
as §1, with “The human epithelioid carcinoma cell line HeLa 229 was obtained from the American Type Culture Collection (Bethesda, Md.). HeLa cells were maintained as monolayers on 6-well plates in Dulbecco's Modified Eagle's medium (DMEM) supplemented with 10 fetal bovine serum and 100 U/ml penicillin. Treatment with oligonucleotide and isolation of RNA were essentially as described above for T24 cells.” left out
Northern hybridization: 10 μg of each RNA was electrophoresed on a 1.2% agarose/formaldehyde gel and transferred overnight to GeneBind 45 nylon membrane (Pharmacia LKB, Piscataway, N.J.) using standard methods. […] Blots were autoradiographed and the intensity of signal was quantitated using an ImageQuant PhosphorImager (Molecular Dynamics, Sunnyvale, Calif.). […]

Series [4] deals with T24 cancer cell proliferation. As to the kind of experiment: Inhibition of proliferation of cancer cells. Type of series: cell-based, human. The settings on record: for inhibition of cell proliferation / IC50: T24 cells; for IC50: dose-response study. The protocol:
Cells were cultured and treated with oligonucleotide essentially as described in Example 27. Cells were seeded on 60 mm plates and were treated with oligonucleotide in the presence of DOTMA when they reached 70% confluency. Time course experiment: On day 1, cells were treated with a single dose of oligonucleotide at a final concentration of 100 nM. The growth medium was changed once on day 3 and cells were counted every day for 5 days, using a counting chamber. Dose-response experiment: Various concentrations of oligonucleotide (10, 25, 50, 100 or 250 nM) were added to the cells and cells were harvested and counted 3 days later. Oligonucleotides 2570, 3985 and 4690 were tested for effects on T24 cancer cell proliferation.

For series [5], the system named is codon-12 point mutation of mutant (activated) H-ras RNA. Type of series: cell-based, human.
Series [6] deals with H-ras. Nature of the series: ras transactivation reporter gene assay. Type of series: cell-based. The following applies: antisense activity against H-ras, 17-mer with 7-deoxy gap. The source says:
The expression plasmid pSV2-oli, containing an activated (codon 12, GGC→GTC) H-ras cDNA insert under control of the constitutive SV40 promoter, was a gift from Dr. Bruno Tocque (Rhone-Poulenc Sante, Vitry, France). This plasmid was used as a template to construct, by PCR, a H-ras expression plasmid under regulation of the steroid-inducible mouse mammary tumor virus (MMTV) promoter. To obtain H-ras coding sequences, the 570 bp coding region of the H-ras gene was amplified by PCR. The PCR primers were designed with unique restriction endonuclease sites in their 5′-regions to facilitate cloning. The PCR product containing the coding region of the H-ras codon 12 mutant oncogene was gel purified, digested, and gel purified once again prior to cloning. This construction was completed by cloning the insert into the expression plasmid pMAMneo (Clontech Laboratories, Calif.).
The ras-responsive reporter gene pRD053 was used to detect ras expression. [Owen et al., Proc. Natl. Acad. Sci. U.S.A., 87, 3866 (1990).
(Reporter assays use an easily measured gene product as a stand-in for the process of interest.)

The subject of series [7] is crude HeLa cellular extracts.
The subject of series [8] is 25 mer oligoribonucleotide complement. As to the kind of experiment: Melting curves of 2′-modified 17-mers with 7-deoxy gap. The following applies: 17-mer with 7-deoxy gap hybridized with 25 mer oligoribonucleotide complement. Type of series: binding. From the text:
This is attributed to these phosphodiester compounds being substrates for nucleases that degrade such phosphodiester compounds thus preventing them potentially activating RNase H. Other sugar modifications: The effects of other 2′ sugar modifications besides 2′-O-methyl on antisense activity in chimeric oligonucleotides have been examined. These modifications are listed in Table 4, along with the Tm values obtained when 17 mer oligonucleotides having 2′-modified nucleotides flanking a 7-base deoxy gap were hybridized with a 25 mer oligoribonucleotide complement as described in Example 25. […] As alkyl length increased, Tm decreased.
Absorbance vs. temperature curves were measured at 260 nm using a Gilford 260 spectrophotometer interfaced to an IBM PC computer and a Gilford Response II spectrophotometer. The buffer contained 100 mM Na^+, 10 mM phosphate and 0.1 mM EDTA, pH 7. Oligonucleotide concentration was 4 μM each strand determined from the absorbance at 85° C. and extinction coefficients calculated according to Puglisi and Tinoco [Methods in Enzymol., 180, 304 (1989). Tm values, free energies of duplex formation and association constants were obtained from fits of data to a two state model with linear sloping baselines. [Petersheim and Turner, Biochemistry, 22, 256 (1983). Reported parameters are averages of at least three experiments. For some oligonucleotides, free energies of duplex formation were also obtained from plots of Tm^−1 vs log10 (concentration). Borer et al., J. Mol. Biol., 86, 843 (1974).

With “7849 (dC*dT*dC*dG*dC*dC*dC*dG*dC*dT*dC*dC*dT*dC*dC*dT*dC*dC*dC*dC) [Oligonucleotide 7849]”, the “inhibition of c-raf mRNA expression” value in series [1] was over 70%.
As to “TCCTCCTCCCCGCGGCGGGT (sugars from the 5' end m11 d9, all phosphorothioate, T or U not given here) [Oligonucleotide 7848]”, in series [1], the “inhibition of c-raf mRNA expression” value is listed as over 70%.
Regarding “TCCCGCCTGTGACATGCATT (sugars from the 5' end m7 d6 m7, all phosphorothioate, T or U not given here) [Oligonucleotide 6720]”, the “inhibition of c-raf mRNA expression” value in series [1] is on record as “greater than 70%”.
As to “7856 (dT*dT*dC*dT*dC*dG*dC*dC*dC*dG*dC*dT*dC*dC*dT*dC*dC*dT*dC*dC) [Oligonucleotide 7856]”, the “inhibition of c-raf mRNA expression” value in series [1] is over 70%.
Regarding “T C C G T C AT C G C T C C T C A G G G [Oligonucleotide 2503]”, in series [2], the “inhibition of ras expression / decrease of ras mRNA” value came to 71% and the “inhibition of ras expression in T24 cells” value was “inhibited ras expression in T24 cells”. Further, the “inhibition of ras expression in HeLa cells” value in series [3] is “inhibited ras expression in HeLa cells”.
With “3985 (CCACACCGACGGCGCCC; 2'-O-methyl wings, phosphorothioate, wing lengths not given here) [Oligonucleotide 3985]”, in series [2], the “inhibition of ras expression / decrease of ras mRNA” value is 95% and 81%. In series [4], the “inhibition of cell proliferation” value came to 82% and half-maximal inhibition (IC50) was put at 61 nM. In addition, in series [5], the “inhibition of ras-luciferase activity” value is on record as “greatest inhibition”.
With “CdCdAd CdAdCd CdGdAd CdGdGd CdGdCd CdCd [Oligonucleotide 2570, reference compound]”, in series [2], the “inhibition of ras expression / decrease of ras mRNA” value is listed as 82% and the “inhibition of ras expression in T24 cells” value is given as “inhibited ras expression in T24 cells; also recorded: decreased ras mRNA levels in T24 cells”. Moreover, the “inhibition of T24 cell proliferation relative to inhibition of HeLa cells” value in series [4] (100 nM oligonucleotide concentration) is listed as “four times as severe”. Also, in series [4], the “inhibition of cell proliferation” value came out at 61% and the IC50 came out at 98 nM. Besides, the “inhibition of ras expression in HeLa cells” value in series [3] is “did not inhibit ras expression in HeLa cells”. Moreover, in series [5], the “inhibition of ras-luciferase activity” value was “dose-dependent inhibition of ras-luciferase activity” and the “selectivity toward the mutant form of ras-luciferase as compared to the normal form” value is on record as “approximate threefold selectivity”. Half-maximal inhibition in series [6] (IC50) was put at 150 nM. For the same substance, the “degradation in HeLa cell extract” value in series [7] is “no degradation after 5 hours”. Also, the “Tm (° C.)” value in series [8] is 6 °C.
“6717 (TCCCGCCTGTGACATGCATT; sugars from the 5' end m6 d8 m6, all phosphorothioate, T or U not given here) [Oligonucleotide 6717]”: the “inhibition of c-raf mRNA expression” value in series [1] is “greater than 90%”.
Take “7854 (TTCTCCTCCTCCCCTGGCAG; sugars from the 5' end m12 d8, all phosphorothioate, T or U not given here) [Oligonucleotide 7854]”: in series [1], the “inhibition of c-raf mRNA expression” value is over 70%.

The term IC50 denotes the concentration that gives 50% inhibition.
